The values below come from patent US20130190324A1, “TOPICAL OCULAR DRUG DELIVERY” (The Regents of the University of Colorado, a body corporate, priority 2011, published 2013).

SMILES strings stand for the structures. ≈ marks a conversion by molar mass, not a printed value. Entries after “also recorded” stand apart in the source; their conditions may differ. Like-named read-outs stand apart in the source and are kept apart here.

For data set [1] the following is noted: single eye drop, cited from earlier work.
Data set [2] is described as follows: Aqueous solubility of GFX and ion pair complex in PBS. It counts as physicochemical. The following applies: phosphate buffer saline (PBS), thermodynamic from solid, phosphate buffer saline pH 7.4, 37° C., mean ± SD, n = 3.
Method: PBS without amino acid was included as control. Samples were incubated at 37° C. for 24 hr in incubator shaker with constant shaking at 200 rpm. At the end of 24 hr of incubations, samples were filtered through 0.45 μm filter and filtrates were analyzed for drug content. All experiments were performed in triplicate.
Another data set concerns calf cornea. As to the kind of experiment: In vitro transport of substrate cassette across normoxic and hypoxic calf cornea. The source says: (§1) Animals used in this study were those that were sacrificed as part of other experiments approved by the Institutional Animal Care Committee of the Colorado State University (Fort Collins) and University of Colorado Anschutz Medical campus. Hypoxic and normoxic calf eyes were obtained from the Department of Physiology, School of Veterinary Medicine, Colorado State University (Fort Collins, Colo.). Briefly, 1 day old male Holstein calves (n=4) were kept in hypobaric hypoxic chambers (PB=445 mm Hg) for 2 weeks. For control experiment, age matched calves (n=4) were kept at ambient altitude (PB=650 mm Hg) and normoxia for two weeks. Hypoxic and normoxic rat eyes were obtained from the Department of Medicine, University of Colorado Anschutz Medical campus (Aurora, Colo.). Sprague Dawley rats (n=4) were maintained in hypobaric hypoxic chambers (PB=380 mm Hg) for 6 weeks and age matched controls were kept at ambient pressure and normoxia.
(§2) In vitro transport studies across hypoxic and control calf cornea and sclera-choroid-RPE (SCRPE) were carried using cassette dosing approach. A cassette of drug transporter substrates, Gly-Sar (PEPT), valacylovir (ATB^0+), MPP^+ (OCT), and phenylacetic acid (MCT) at a concentration of 100 μM each in assay buffer was prepared. Briefly, the calf eyes were harvested immediately after euthanasia and transferred to the laboratory on ice. Upon arrival in the lab, the eyes were washed with assay buffer and cleaned from muscle and unwanted tissues. Anterior and posterior parts were separated by circumferential cut at the limbus. Vitreous was removed and the neural retina was separated from the choroid-RPE by filling the eye cup with assay buffer. The retina afloat in assay buffer was isolated and the eye cup was divided into two pieces (˜1.5×1.5 cm) of sclera-choroid-RPE. Isolated tissues were mounted on modified Ussing chambers (Navicyte, Sparks, Nev.) such that the episcleral side of SCRPE or epithelial side of cornea was facing the donor chamber and retinal side or endothelial side of the cornea was facing the receiver chamber. The chambers were filled with 1.5 ml of assay buffer at 37° C. with (donor side) or without (receiver side) the cocktail of drug transporter substrates. For the study of effect of transporter inhibitors, cocktail mixture (500 μM) of transporter inhibitors was added on both donor and acceptor sides.
(§3) During the transport study, the bathing fluids were maintained at 37° C. using circulating warm water. The pH of the fluids was maintained at pH 7.4 using 95% air-5% CO2 aeration. Samples were collected (200 μL) from receiver side every hour for 6 hours and the removed volume was replaced with fresh assay buffer pre-equilibrated to 37° C. Drug levels were analyzed using a LC-MS/MS assay. Permeation data were corrected for dilution of the receiver concentrations with sample volume replenishment.
(§4) Analyte concentrations in transport study samples were measured using LC-MS/MS method after 5-fold dilution with acetonitrile to reduce the salt concentrations. A cassette analysis method was developed for simultaneous analysis of Gly-Sar, valacylovir, and MPP Phenyl acetic acid was analyzed separately with a negative ionization method and a normal phase separation method. An API-3000 triple quadrupole mass spectrometry (Applied Biosystems, Foster City, Calif., USA) coupled with a PerkinElmer series-200 liquid chromatography (Perkin Elmer, Waltham, Mass., USA) system was used for analysis. Gly-Sar, valacylovir and MPP were separated on Supelco C-5 column (2.1×10 mm, 3 μm) using water containing 0.1% formic acid (A) and acetonitrile:methanol (50:50 v/v) containing 0.1% formic acid (B) as mobile phase. A linear gradient elution at a flow rate of 0.3 ml/min with a total run time of 9 min was employed. Phenyl acetic acid was separated in normal phase separation mode on Obelisc-N silica column (2.1×10 mm, 3 μM) using 5 mM ammonium formate at pH 3.5 (A) and acetonitrile (B) as mobile phase.

The subject of data set [3] is calf sclera-choroid-RPE (SCRPE). Put plainly: In vitro transport of substrate cassette across normoxic and hypoxic calf SCRPE.
From the text: as §1, §2, §3, §4

The conditions of data set [4]: cited from earlier work.

As a reminder, the solubility is how much of the substance goes into solution per volume. Low values mean little dissolved substance, high ones much dissolved substance. On to `COc1c(N2CCNC(C)C2)c(F)cc2c(=O)c(C(=O)O)cn(C3CC3)c12` (stereo not drawn) [GFX, gatifloxacin], for which the “reported Tmax” value is 19.8 min in data set [1] (aqueous humor) and 4.98 min in data set [1] (cornea). The solubility in the data set “physchem” (water) is 640 µg/mL (≈ 1.7 mM); in the data set “physchem” (water for injection), 2500 µg/mL (≈ 6.66 mM). Moreover, the solubility at 24 h in data set [2] was 5490 µg/mL (≈ 14.6 mM).

Turning to `CC(C)[C@H](N)C(=O)OCCOCn1cnc2c(=O)[nH]c(N)nc21` [valacylovir], the “apparent permeability (Papp) across hypoxic vs normoxic tissue (in words)” value was “significantly higher across normoxic cornea than hypoxic cornea” in the data set on calf cornea (calf cornea) and “significantly higher across normoxic SCRPE than hypoxic SCRPE” in data set [3] (calf SCRPE). Moreover, the “transport across hypoxic vs normoxic tissue (in words)” value with calf cornea (calf cornea, cassette 100 μM) is on record as “significantly higher across normoxic calf cornea than hypoxic calf cornea”; in data set [3] (calf SCRPE, cassette 100 μM) it was “significantly decreased in hypoxic calf SCRPE; also recorded: significantly higher across normoxic calf SCRPE than hypoxic calf SCRPE”. The “decrease in cumulative % transport across hypoxic tissue” value in the data set with calf cornea (hypoxic vs normoxic calf cornea) is on record as 36%; in data set [3] (hypoxic vs normoxic calf SCRPE) it was 61%. In data set [4], the “increase in oral bioavailability as compared to parent acyclovir” value is “three to five fold increase”.
